Laboratory results taken from patent US20060125896A1, “Ink tank, ink jet recording method, and ink tank regeneration process” (Canon Kabushiki Kaisha, priority 2004, published 2006).

Experiment: Solubility in pure water with pH 7 at 25° C.
Format: physicochemical
Conditions: pH 7, 25° C., compared with the coloring material
Experimental: In order to inspect depositing quality due to the influence of pH, the solubility in pure water with pH7 at 25° C. has been compared between the compound represented by the general formula (I) or a salt thereof and the compound represented by the general formula (II) to find that the compound represented by the general formula (II) has a lower solubility than the compound represented by the general formula (I) or a salt thereof. This fact also has supported that the compound represented by the general formula (II) has a high depositing quality.

For `O=C([O-])c1ccccc1Nc1nc(O)nc(Nc2ccccc2C(=O)[O-])n1.[Na+].[Na+]` [Exemplified Compound B], the “solubility in pure water” value was “lower than the solubility of Exemplified Compound A”.
